Reference: patent US20250129104A1, “7H-PYRROLO[2,3-D]PYRIMIDINES AND PREPARATION AND USES THEREOF” (BioSplice Therapeutics, Inc., priority 2021, published 2025)
pEC50: −log10 of the molar value.

target: recombinant DYRK1A kinase (Homo sapiens (Human), UniProt Q13627); test: DYRK1A kinase assay (Ser/Thr 18 peptide Z-lyte FRET assay); type: biochemical; settings: DYRK1A kinase activity; 15 μM ATP, 1 h room temperature; method text calls the value IC50
Method in brief: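 FRET Z-lyte read-out (coumarin/fluorescein ratio, % phosphorylation) after 1 h development; IC50 from non-linear curve fit. Reaction: 0.25 μg/mL recombinant human DYRK1A, Ser/Thr 18 peptide 4 μM, ATP 15 μM, compound in 11-point 1:3 series from 10 μM, 1 h, room temperature, duplicate wells.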

| Molecule | pEC50 |
| --- | --- |
| C[C@@H](Nc1ncc2c(-c3ccn4ncc(Cl)c4n3)c[nH]c2n1)C(F)(F)F [Compound 1681, (R)-5-(3-Chloropyrazolo[1,5-a]pyrimidin-5-yl)-N-(1,1,1-trifluoropropan-2-yl)-7H-pyrrolo[2,3-d]pyrimidin-2-amine] | 7.01 |
| CCO[C@H]1CC[C@@H](Nc2ncc3c(-c4ccc5nnn(C)c5c4)c[nH]c3n2)CC1 [Compound 2143, N-(cis-4-Ethoxycyclohexyl)-5-(1-methyl-1H-benzo[d][1,2,3]triazol-6-yl)-7H-pyrrolo[2,3-d]pyrimidin-2-amine] | 8.00 |
| N-(4,4-Difluorocyclohexyl)-4-methoxy-5-(pyrazolo[1,5-a]pyrimidin-5-yl)-7H-pyrrolo[2,3-d]pyrimidin-2-amine [Compound 2223] | 8.03 |
| FC(F)(F)CNc1ncc2c(-c3ccn4nccc4n3)c[nH]c2n1 [Compound 1650, 5-(Pyrazolo[1,5-a]pyrimidin-5-yl)-N-(2,2,2-trifluoroethyl)-7H-pyrrolo[2,3-d]pyrimidin-2-amine] | 7.70 |
| C[C@@H](Nc1ncc2c(-c3ccn4nccc4n3)c[nH]c2n1)C(F)(F)F [Compound 1651, (R)-5-(Pyrazolo[1,5-a]pyrimidin-5-yl)-N-(1,1,1-trifluoropropan-2-yl)-7H-pyrrolo[2,3-d]pyrimidin-2-amine] | 7.88 |
| Fc1cc(-c2c[nH]c3nc(NCC4CC4)ncc23)cn2ccnc12 [Compound 207, N-(Cyclopropylmethyl)-5-(8-fluoroimidazo[1,2-a]pyridin-6-yl)-7H-pyrrolo [2,3-d]pyrimidin-2-amine] | 7.56 |
| COc1nc(NC2CCC3(CC2)OCCO3)nc2[nH]cc(-c3cc(F)c4nccn4c3)c12 [Compound 2188, 5-(8-Fluoroimidazo[1,2-a]pyridin-6-yl)-4-methoxy-N-(1,4-dioxaspiro[4.5]decan-8-yl)-7H-pyrrolo[2,3-d]pyrimidin-2-amine] | 8.72 |
| CC(C)(F)CNc1ncc2c(-c3ccc4ncc(Cl)n4n3)c[nH]c2n1 [Compound 952, 5-(3-chloroimidazo[1,2-b]pyridazin-6-yl)-N-(2-fluoro-2-methylpropyl)-7H-pyrrolo[2,3-d]pyrimidin-2-amine] | 8.57 |
| Cn1nnc2ccc(-c3c[nH]c4nc(CCC(F)(F)F)ncc34)cc21 [Compound 811, 1-Methyl-6-(2-(3,3,3-trifluoropropyl)-7H-pyrrolo[2,3-d]pyrimidin-5-yl)-1H-benzo[d][1,2,3]triazole] | 7.48 |
| FC(F)(F)CNc1ncc2c(-c3ccc4nccn4n3)c[nH]c2n1 [Compound 911, 5-(Imidazo[1,2-b]pyridazin-6-yl)-N-(2,2,2-trifluoroethyl)-7H-pyrrolo[2,3-d]pyrimidin-2-amine] | 8.02 |
| C[C@H](Nc1ncc2c(-c3ccn4nccc4n3)c[nH]c2n1)C(F)(F)F [Compound 1652, (S)-5-(Pyrazolo[1,5-a]pyrimidin-5-yl)-N-(1,1,1-trifluoropropan-2-yl)-7H-pyrrolo[2,3-d]pyrimidin-2-amine] | 6.99 |
| COc1nc(CC(C)C)nc2[nH]cc(-c3ccc4ncccc4c3)c12 [Compound 1857, 6-(2-Isobutyl-4-methoxy-7H-pyrrolo[2,3-d]pyrimidin-5-yl)quinoline] | 7.37 |
| Cn1nnc2ccc(-c3c[nH]c4nc(NC5CCOCC5)ncc34)cc21 [Compound 843, 5-(1-Methyl-1H-benzo[d][1,2,3]triazol-6-yl)-N-(tetrahydro-2H-pyran-4-yl)-7H-pyrrolo[2,3-d]pyrimidin-2-amine] | 7.63 |
| CN(C)C(=O)c1cnn2ccc(-c3c[nH]c4nc(C5CC5)ncc34)cc12 [Compound 1245, 5-(2-Cyclopropyl-7H-pyrrolo[2,3-d]pyrimidin-5-yl)-N,N-dimethylpyrazolo [1,5-a]pyridine-3-carboxamide] | 6.74 |
| CC(C)(F)CNc1ncc2c(-c3ccn4nccc4c3)c[nH]c2n1 [Compound 1125, N-(2-Fluoro-2-methylpropyl)-5-(pyrazolo[1,5-a]pyridin-5-yl)-7H-pyrrolo [2,3-d]pyrimidin-2-amine] | 8.34 |
| COc1nc(N[C@H]2CC[C@@](C)(O)CC2)nc2[nH]cc(-c3cc(F)c4nccn4c3)c12 [Compound 2186, cis-4-((5-(8-Fluoroimidazo[1,2-a]pyridin-6-yl)-4-methoxy-7H-pyrrolo[2,3-d]pyrimidin-2-yl)amino)-1-methylcyclohexan-1-ol] | 8.64 |
| C[C@H](Nc1ncc2c(-c3ccc4nnn(C)c4c3)c[nH]c2n1)C(F)(F)F [Compound 826, (S)-5-(1-Methyl-1H-benzo[d][1,2,3]triazol-6-yl)-N-(1,1,1-trifluoropropan-2-yl)-7H-pyrrolo[2,3-d]pyrimidin-2-amine] | 7.37 |
| COc1ccc(-c2c[nH]c3ncnc(N[C@H]4CC[C@H](N5CCOCC5)CC4)c23)cn1 [Compound 8, 5-(6-Methoxypyridin-3-yl)-N-(trans-4-morpholinocyclohexyl)-7H-pyrrolo [2,3-d]pyrimidin-4-amine] | 6.11 |
| CC(C)Cc1ncc2c(-c3ccn4nccc4n3)c[nH]c2n1 [Compound 1636, 2-Isobutyl-5-(pyrazolo[1,5-a]pyrimidin-5-yl)-7H-pyrrolo[2,3-d]pyrimidine] | 6.67 |
| CC(C)(F)CNc1ncc2c(-c3ccc4ncc(C(F)F)n4n3)c[nH]c2n1 [Compound 1081, 5-(3-(Difluoromethyl)imidazo[1,2-b]pyridazin-6-yl)-N-(2-fluoro-2-methylpropyl)-7H-pyrrolo[2,3-d]pyrimidin-2-amine] | 8.59 |
| [2H]C([2H])([2H])O[C@H]1CC[C@@H](Nc2ncc3c(-c4ccc5nccnc5c4)c[nH]c3n2)CC1 [Compound 2173, N-(cis-4-(Methoxy-d3)cyclohexyl)-5-(quinoxalin-6-yl)-7H-pyrrolo[2,3-d]pyrimidin-2-amine] | 7.98 |
| CC(C)(F)CNc1ncc2c(-c3ccc4ncccc4c3)c[nH]c2n1 [Compound 1869, N-(2-Fluoro-2-methylpropyl)-5-(quinolin-6-yl)-7H-pyrrolo[2,3-d]pyrimidin-2-amine] | 8.40 |

The next lines start with the values.

| pEC50 | Molecule |
| --- | --- |
| 6.62 | COc1nc(N[C@H]2CC[C@@H](OC(F)F)CC2)nc2[nH]cc(-c3ccc4nnn(C)c4c3)c12 [Compound 2287, N-(cis-4-(Difluoromethoxy)cyclohexyl)-4-methoxy-5-(1-methyl-1H-benzo[d][1,2,3]triazol-6-yl)-7H-pyrrolo[2,3-d]pyrimidin-2-amine] |
| 8.16 | Cc1nc2ccc(-c3c[nH]c4nc(N[C@H]5CC[C@@](C)(O)CC5)ncc34)nc2n1CC(F)F [Compound 2239, cis-4-((5-(3-(2,2-Difluoroethyl)-2-methyl-3H-imidazo[4,5-b]pyridin-5-yl)-7H-pyrrolo[2,3-d]pyrimidin-2-yl)amino)-1-methylcyclohexan-1-ol] |
| 8.52 | CCOc1nc(N[C@H]2CC[C@@H](O)CC2)nc2[nH]cc(-c3cc(F)c4nccn4c3)c12 [Compound 2190, cis-4-((4-Ethoxy-5-(8-fluoroimidazo[1,2-a]pyridin-6-yl)-7H-pyrrolo[2,3-d]pyrimidin-2-yl)amino)cyclohexan-1-ol] |
| 8.77 | COc1nc(N[C@H]2CC[C@@H](O)CC2)nc2[nH]cc(-c3ccn4nccc4c3)c12 [Compound 2207, cis-4-((4-Methoxy-5-(pyrazolo[1,5-a]pyridin-5-yl)-7H-pyrrolo[2,3-d]pyrimidin-2-yl)amino)cyclohexan-1-ol] |
| 7.10 | COC[C@@H](C)Nc1nc(OC)c2c(-c3ccn4nccc4c3)c[nH]c2n1 [Compound 2205, (R)-4-Methoxy-N-(1-methoxypropan-2-yl)-5-(pyrazolo[1,5-a]pyridin-5-yl)-7H-pyrrolo[2,3-d]pyrimidin-2-amine] |
| 7.82 | [2H]C([2H])([2H])O[C@H]1CC[C@@H](Nc2nc(OC)c3c(-c4cc(F)c5nccn5c4)c[nH]c3n2)CC1 [Compound 2256, 5-(8-Fluoroimidazo[1,2-a]pyridin-6-yl)-4-methoxy-N-(cis-4-(methoxy-d3)cyclohexyl)-7H-pyrrolo[2,3-d]pyrimidin-2-amine] |
| 6.76 | COc1nc(NC2CCC(F)(F)CC2)nc2[nH]cc(-c3ccc4ncccc4c3)c12 [Compound 2227, N-(4,4-Difluorocyclohexyl)-4-methoxy-5-(quinolin-6-yl)-7H-pyrrolo[2,3-d]pyrimidin-2-amine] |
| 7.94 | CCOc1nc(N[C@H](C)C(F)(F)F)nc2[nH]cc(-c3ccc4nnn(C)c4c3)c12 [Compound 2196, (R)-4-Ethoxy-5-(1-methyl-1H-benzo[d][1,2,3]triazol-6-yl)-N-(1,1,1-trifluoropropan-2-yl)-7H-pyrrolo[2,3-d]pyrimidin-2-amine] |
| 7.81 | COc1nc(N[C@H](C)C(F)(F)F)nc2[nH]cc(-c3ccn4nccc4c3)c12 [Compound 2204, (R)-4-Methoxy-5-(pyrazolo[1,5-a]pyridin-5-yl)-N-(1,1,1-trifluoropropan-2-yl)-7H-pyrrolo[2,3-d]pyrimidin-2-amine] |
| 8.92 | 4-Methoxy-N-(cis-4-methoxycyclohexyl)-5-(1-methyl-1H-benzo[d][1,2,3]triazol-6-yl)-7H-pyrrolo[2,3-d]pyrimidin-2-amine [Compound 3114] |
| 6.64 | COc1nc(N[C@H]2CC[C@H](OC)CC2)nc2[nH]cc(-c3ccn4nccc4c3)c12 [Compound 3310, 4-Methoxy-N-(trans-4-methoxycyclohexyl)-5-(pyrazolo[1,5-a]pyridin-5-yl)-7H-pyrrolo[2,3-d]pyrimidin-2-amine] |
| 8.85 | [2H]C([2H])([2H])Oc1nc(N[C@H]2CC[C@@H](OC)CC2)nc2[nH]cc(-c3ccn4nccc4c3)c12 [Compound 3311, 4-(Methoxy-d3)—N-(cis-4-methoxycyclohexyl)-5-(pyrazolo[1,5-a]pyridin-5-yl)-7H-pyrrolo[2,3-d]pyrimidin-2-amine] |
| 8.92 | COc1nc(N[C@H]2CC[C@@H](OC)CC2)nc2[nH]cc(-c3ccc4ncnn4c3)c12 [Compound 3047, 5-([1,2,4]Triazolo[1,5-a]pyridin-6-yl)-4-methoxy-N-(cis-4-methoxycyclohexyl)-7H-pyrrolo[2,3-d]pyrimidin-2-amine] |
